In patent publication US12617783B2, “Heterocyclic GLP-1R agonists” (BIOMEA FUSION, INC., priority 2024, dated 2026):

Each compound was assayed against T1, human GLP-1R (Homo sapiens, UniProt P43220) (assay: GLP-1R cAMP assay (Example B1a, HTRF, 30 min at room temperature)). Settings: cAMP accumulation in HEK293 expressing human GLP-1R, no BETP, 30 min room temperature (Method B1a, compounds ID 1-609), Table 1; read-out: EC50.
T1 construct: host or cells: HEK293
Format: cell-based
Procedure, shortened: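 Competitive HTRF read-out of cAMP after 30 min room-temperature stimulation, BETP absent, of human GLP-1R-HEK293 cells (1,000/well) in HEPES buffer with 500 μM IBMX and 0.1% BSA. Activation normalised to GLP-1(7-37) positive control. EC50 from 4-parameter non-linear regression.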

T1 sequence (P43220 24-463): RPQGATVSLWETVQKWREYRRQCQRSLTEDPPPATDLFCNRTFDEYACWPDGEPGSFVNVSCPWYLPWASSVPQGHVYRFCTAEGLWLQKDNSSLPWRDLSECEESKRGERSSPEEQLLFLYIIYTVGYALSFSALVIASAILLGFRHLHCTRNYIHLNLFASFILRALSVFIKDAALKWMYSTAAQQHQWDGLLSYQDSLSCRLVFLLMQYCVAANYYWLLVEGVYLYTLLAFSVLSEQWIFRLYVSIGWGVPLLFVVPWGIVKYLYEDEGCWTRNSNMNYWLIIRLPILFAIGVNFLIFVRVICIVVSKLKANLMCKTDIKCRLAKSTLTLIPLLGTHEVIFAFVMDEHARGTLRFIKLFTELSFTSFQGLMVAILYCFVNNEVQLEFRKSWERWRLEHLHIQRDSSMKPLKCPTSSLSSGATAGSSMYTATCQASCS

EC50 | SMILES
0.212 µM | Cc1cc(-n2nc3c(c2-n2ccn(-c4cc(F)c5c(cnn5C)c4F)c2=O)[C@@H]2COC[C@H](C3)N2C(=O)c2cc3cc([C@H]4CCOC(C)(C)C4)ccc3n2[C@@]2(c3noc(=O)[nH]3)C[C@@H]2C)cc(C)c1F [Compound 224, 3-[(1S,2S)-1-[2-[(1R,8S)-3-[3-(4,7-difluoro-1-methyl-indazol-5-yl)-2-oxo-imidazol-1-yl]-4-(4-fluoro-3,5-dimethyl-phenyl)-10-oxa-4,5,12-triazatricyclo[6.3.1.02,6]dodeca-2,5-diene-12-carbonyl]-5-[(4S)-2,2-dimethyltetrahydropyran-4-yl]indol-1-yl]-2-methyl-cyclopropyl]-4H-1,2,4-oxadiazol-5-one]
> 10 µM | Cc1cc(-n2nc3c(c2-n2ccn(-c4ccc5c(cnn5C)c4F)c2=O)[C@@H]2CC[C@H](C3)N2C(=O)c2cc3cc([C@H]4CCOC(C)(C)C4)ccc3n2[C@@]2(C(=O)NS(=O)(=O)N(C)C)C[C@@H]2C)cc(C)c1F [Compound 205, cis-(1S,2S)-N-(dimethylsulfamoyl)-1-[5-[(4S)-2,2-dimethyltetrahydropyran-4-yl]-2-[(1S,8R)-4-(4-fluoro-3,5-dimethyl-phenyl)-3-[3-(4-fluoro-1-methyl-indazol-5-yl)-2-oxo-imidazol-1-yl]-4,5,11-triazatricyclo[6.2.1.02,6]undeca-2,5-diene-11-carbonyl]indol-1-yl]-2-methyl-cyclopropanecarboxamide]
≥ 10 µM | Cc1cc(-n2nc3c(c2-n2ccn(-c4ccc5c(cnn5C)c4F)c2=O)C2CCC(CC3)N2C(=O)c2cc3cc([C@H]4CCOC(C)(C)C4)ccc3n2[C@@]2(c3noc(=O)[nH]3)C[C@@H]2C)cc(C)c1F (stereo partly drawn) [Compound 522, 3-[(1S,2S)-1-[5-[(4S)-2,2-dimethyltetrahydropyran-4-yl]-2-[4-(4-fluoro-3,5-dimethyl-phenyl)-3-[3-(4-fluoro-1-methyl-indazol-5-yl)-2-oxo-imidazol-1-yl]-4,5,12-triazatricyclo[7.2.1.02,6]dodeca-2,5-diene-12-carbonyl]indol-1-yl]-2-methyl-cyclopropyl]-4H-1,2,4-oxadiazol-5-one]

More lines, now with the values behind:

SMILES | EC50
Cc1cc(-n2nc3c(c2-n2ccn(-c4ccc5[nH]ncc5c4F)c2=O)[C@@H]2CC[C@H](C3)N2C(=O)c2cc3cc([C@H]4CCOC5(CC5)C4)ccc3n2[C@@]2(c3noc(=O)[nH]3)C[C@@H]2C)cc(C)c1F [Compound 436, 3-((1S,2S)-1-(2-((4S,7R)-3-(3-(4-fluoro-1H-indazol-5-yl)-2-oxo-2,3-dihydro-1H-imidazol-1-yl)-2-(4-fluoro-3,5-dimethylphenyl)-2,4,5,6,7,8-hexahydro-4,7-epiminocyclohepta [c]pyrazole-9-carbonyl)-5-((S)-4-oxaspiro[2.5]octan-7-yl)-1H-indol-1-yl)-2-methylcyclopropyl)-1,2,4-oxadiazol-5 (4H)-one] | 0.07 µM
Cc1cc(-n2nc3c(c2-n2ccn(-c4ccc5c(cnn5C(F)F)c4F)c2=O)[C@@H]2CC[C@H](C3)N2C(=O)c2cc3cc([C@H]4CCOC(C)(C)C4)ccc3n2[C@@]2(c3noc(=O)[nH]3)C[C@@H]2C)cc(C)c1F [Compound 310, 3-((1S,2S)-1-(2-((4S,7R)-3-(3-(1-(difluoromethyl)-4-fluoro-1H-indazol-5-yl)-2-oxo-2,3-dihydro-1H-imidazol-1-yl)-2-(4-fluoro-3,5-dimethylphenyl)-2,4,5,6,7,8-hexahydro-4,7-epiminocyclohepta [c]pyrazole-9-carbonyl)-5-((S)-2,2-dimethyltetrahydro-2H-pyran-4-yl)-1H-indol-1-yl)-2-methylcyclopropyl)-1,2,4-oxadiazol-5(4H)-one] | 0.182 µM
CC[C@H]1C[C@]1(c1noc(=O)[nH]1)n1c(C(=O)N2[C@@H]3CC[C@H]2c2c(nn(-c4cc(C)c(F)c(C)c4)c2-n2ccn(-c4ccc5c(cnn5C)c4F)c2=O)C3)cc2cc([C@H]3CCOC(C)(C)C3)ccc21 [Compound 434, 3-[(1S,2S)-1-[5-[(4S)-2,2-dimethyltetrahydropyran-4-yl]-2-[(1S,8R)-4-(4-fluoro-3,5-dimethyl-phenyl)-3-[3-(4-fluoro-1-methyl-indazol-5-yl)-2-oxo-imidazol-1-yl]-4,5,11-triazatricyclo[6.2.1.02,6]undeca-2,5-diene-11-carbonyl]indol-1-yl]-2-ethyl-cyclopropyl]-4H-1,2,4-oxadiazol-5-one] | 0.175 µM
Cc1cc(-n2nc3c(c2-c2ncn(-c4ccc5c(cnn5C)c4F)c2C)[C@H](C)N(C(=O)c2cc4cc([C@H]5CCOC(C)(C)C5)ccc4n2C2(c4noc(=O)[nH]4)CC2)CC3)cc(C)c1F [Compound 30, 3-(1-(5-((S)-2,2-dimethyltetrahydro-2H-pyran-4-yl)-2-((4S)-3-(1-(4-fluoro-1-methyl-1H-indazol-5-yl)-5-methyl-1H-imidazol-4-yl)-2-(4-fluoro-3,5-dimethylphenyl)-4-methyl-4,5,6,7-tetrahydro-2H-pyrazolo[4,3-c]pyridine-5-carbonyl)-1H-indol-1-yl)cyclopropyl)-1,2,4-oxadiazol-5 (4H)-one] | > 10 µM
Cc1cc(-n2nc3c(c2N2C(=O)CN(c4ccc5c(cnn5C)c4F)C2=O)[C@H](C)N(C(=O)c2cc4cc([C@H]5CCOC(C)(C)C5)ccc4n2[C@@]2(c4noc(=O)[nH]4)C[C@@H]2C)CC3)cc(C)c1F [Compound 23, 3-((S)-5-(5-((S)-2,2-dimethyltetrahydro-2H-pyran-4-yl)-1-((1S,2S)-2-methyl-1-(5-oxo-4,5-dihydro-1,2,4-oxadiazol-3-yl)cyclopropyl)-1H-indole-2-carbonyl)-2-(4-fluoro-3,5-dimethylphenyl)-4-methyl-4,5,6,7-tetrahydro-2H-pyrazolo[4,3-c]pyridin-3-yl)-1-(4-fluoro-1-methyl-1H-indazol-5-yl) imidazolidine-2,4-dione] | 0.361 µM
Cc1cc(-n2nc3c(c2-n2ccn(-c4ccc5c(cnn5C)c4F)c2=O)[C@@H]2CC[C@H](C3)N2C(=O)c2cc3nc(C4CCOC(C)(C)C4)sc3n2[C@@]2(c3noc(=O)[nH]3)C[C@@H]2C)cc(C)c1F (stereo partly drawn) [Compound 139, 3-[(1S,2S)-1-[2-(2,2-dimethyltetrahydropyran-4-yl)-5-[(1S,8R)-4-(4-fluoro-3,5-dimethyl-phenyl)-3-[3-(4-fluoro-1-methyl-indazol-5-yl)-2-oxo-imidazol-1-yl]-4,5,11-triazatricyclo[6.2.1.02,6]undeca-2,5-diene-11-carbonyl]pyrrolo[3,2-d]thiazol-4-yl]-2-methyl-cyclopropyl]-4H-1,2,4-oxadiazol-5-one] | 3.11 µM
Cc1cc(-n2nc3c(c2-n2ccn(-c4ccc5c(cnn5C)c4F)c2=O)[C@@H]2CC[C@H](C3)N2C(=O)c2cc3cc([C@H]4CCOC(C)(C)C4)ccc3n2[C@@]2(C(=O)N(C)C)C[C@@H]2C)cc(C)c1F [Compound 240, cis-(1S,2S)-1-[5-[(4S)-2,2-dimethyltetrahydropyran-4-yl]-2-[(1S,8R)-4-(4-fluoro-3,5-dimethyl-phenyl)-3-[3-(4-fluoro-1-methyl-indazol-5-yl)-2-oxo-imidazol-1-yl]-4,5,11-triazatricyclo[6.2.1.02,6]undeca-2,5-diene-11-carbonyl]indol-1-yl]-N,N,2-trimethyl-cyclopropanecarboxamide] | 0.618 µM
